For data set [1] the following is noted: human, in vivo; cited from earlier work.
The conditions of data set [2]: in vivo; cited from earlier work.
For data set [3] the following is noted: cited from earlier work.
The conditions of data set [4]: cited from earlier work. This is another data set of the same source.
A further data set has as its target copper-albumin (Homo sapiens, UniProt P02768). To be noted: in vitro.
Another data set concerns breast cancer cells. Kind of data set: Human breast cancer xenograft growth in athymic nude mice. The format is in vivo. How it is done:
FIG. 5. […] 10^6 breast cancer cells were injected in the mammary fat pad of 4 groups of athymic, nude mice (5 mice per group). Control mice received no treatment.
In this study, 10^6 breast cancer cells were injected in the mammary fat pad of 4 groups of athymic, nude mice (5 mice per group). Control mice received no treatment.
In general terms: Xenograft models place foreign cells or tissue in a host animal.

The mark [5] stands for this setting: therapeutic dose 1,000-2,000 mg/day.

Entries after “also recorded” stand apart in the source; their conditions may differ.

copper-albumin, sequence (P02768 25-609): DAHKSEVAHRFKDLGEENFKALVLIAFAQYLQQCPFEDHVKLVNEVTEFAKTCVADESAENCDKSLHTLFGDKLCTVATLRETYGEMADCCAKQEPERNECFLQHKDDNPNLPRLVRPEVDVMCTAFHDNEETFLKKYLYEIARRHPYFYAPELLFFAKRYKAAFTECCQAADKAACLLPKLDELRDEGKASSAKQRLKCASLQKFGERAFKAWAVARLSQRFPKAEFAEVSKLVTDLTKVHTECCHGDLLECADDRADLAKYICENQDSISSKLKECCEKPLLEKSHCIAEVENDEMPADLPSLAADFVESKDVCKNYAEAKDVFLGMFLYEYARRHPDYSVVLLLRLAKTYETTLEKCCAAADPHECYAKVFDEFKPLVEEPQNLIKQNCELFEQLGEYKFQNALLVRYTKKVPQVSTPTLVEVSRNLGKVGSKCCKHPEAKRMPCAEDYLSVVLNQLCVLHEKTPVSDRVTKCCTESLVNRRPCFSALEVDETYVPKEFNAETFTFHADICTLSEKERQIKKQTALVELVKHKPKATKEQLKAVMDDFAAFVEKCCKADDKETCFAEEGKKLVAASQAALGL

On to `NC(=O)c1nnn(Cc2cc(Cl)c(C(=O)c3ccc(Cl)cc3)c(Cl)c2)c1N` [CAI, carboxyamidotriazole], for which the “disease stabilization in cancer patients having progressive disease before treatment” value in data set [1] is given as 49%.
In the case of `CC(C)(S)[C@@H](N)C(=O)O` [penicillamine], the initial hypersensitivity syndrome result in data set [2] is “about a quarter to a third of patients”.
In the case of `NCCNCCNCCN` [trientine], in data set [3] (after several weeks of use), the patients with proteinuria result was “about 20%”. In addition, in data set [3] (setting [5]), the “cupruresis after the first few weeks of therapy” value is 2 to 3 mg and the initial cupruresis is 4 to 5 mg.
For `CC(=O)[O-].CC(=O)[O-].[Zn+2]` [zinc, zinc acetate], in data set [4] (150 mg daily, 200 Wilson's disease patients), the toxicity entry is reported as “no toxicity at all”. For the same compound, the copper balance induced in data set [4] (at the two week point) is recorded as −0.35 mg daily. Moreover, in data set [4] (in vivo), the “time to bring urine copper and nonceruloplasmin plasma copper to subtoxic levels” value is recorded as “as long as six months”; the “time to intestinal metallothionein induction and negative copper balance” value is listed as “approximately two weeks”.
Take “tetrapropylammonium tetrathiomolybdate [TP-TM]”: at copper-albumin, the copper-albumin-TM tripartite binding result is given as “show the standard copper-albumin-TM tripartite binding”. Further, the “tumor growth curves versus control animals” value in the data set on breast cancer cells (TM 1 mg/day, TP-TM 1 mg/day and 1.5 mg/day, p<0.01 vs control) was “effectively inhibiting tumor growth”. Moreover, the “TP-TM tumor growth inhibition compared with TM” value in the data set with breast cancer cells (TP-TM 1 and 1.5 mg/day vs AmmTM 1 mg/day) is reported as “indistinguishable from that of AmmTM; also recorded: at least as effective as TM; also recorded: statistically indistinguishable from the TM curves”.

Source of the values: patent US7888389B2 (The Regents of the University of Michigan, priority 2002, dated 2011).
